Patent publication US9937121B2, “Hydrophilic external gel formulation capable of enhancing skin permeability of tacrolimus” (CHUNG-ANG UNIVERSITY INDUSTRY-ACADEMIC COOPERATION …, priority 2014, dated 2018)

Key:
[1] = poorly soluble in water and highly permeable; cited from earlier work
[2] = Solubility of tacrolimus in Transcutol P; format: physicochemical; settings: room temperature
Excerpt: Since tacrolimus is lipid-soluble and a formulation for delivering a drug is in a hydrophilic gel form, a solubilizer that can dissolve tacrolimus and then disperse tacrolimus well was needed. Also, in order to enhance the skin permeability of tacrolimus, Transcutol P was selected as a substance which can act as an enhancer for skin permeability. […] Carbopol 934P used as a polymeric base absorbs and attracts water well, has an ability to form a film, and thus is widely used as a moisturizer. Carnosine, which is a biocomponent present in human muscle and brain tissue, is known as a substance having excellent antioxidant activity, and appropriately adjusts the pH of a formulation for external application when applied to skin.

For `C=CC[C@@H]1/C=C(\C)C[C@H](C)C[C@H](OC)[C@H]2O[C@@](O)(C(=O)C(=O)N3CCCC[C@H]3C(=O)O[C@H](/C(C)=C/[C@@H]3CC[C@@H](O)[C@H](OC)C3)[C@H](C)[C@@H](O)CC1=O)[C@H](C)C[C@@H]2OC` [tacrolimus, Tacrolimus], the BCS class [1] is listed as “class II” and the “solubility of tacrolimus in Transcutol P” value [2] is listed as 240 mg/g.
